Source: PMC12316891, “A bottom-up approach to find lead compounds in expansive chemical spaces” (Communications Chemistry, 2025)

What was measured:
His6-BRD4 (BD1) = biological target: T1, His6-BRD4 (BD1) (Homo sapiens, UniProt O60885); assay: Surface plasmon resonance (SPR) single-dose screening; type: binding; design: key to SPR RESULT: Positive: compounds were considered as SPR hits also when their average signal was further than two standard deviations apart from the average signal of the blank samples (1% DMSO); details: for RUs at [10 µM]: SPR, compound 10 µM, 1% DMSO, n = 2, decimal comma; for SPR RESULT: single dose 10 µM, n = 2
T1 construct: A pET28 plasmid containing residues 44–168 of BRD4 (BD1), a 6xHis tag, a TEV protease cleavage site; made in house; host or cells: E. coli Rosetta (D3)

BRD4 (BD1) [1] = biological target: T2, BRD4 (BD1) (Homo sapiens, UniProt O60885); assay: Competitive HTRF TR-FRET binding assay (displacement of acetylated histone H4 peptide); details: for TR-FRET IC50 (nM) / IC50: 16-point titration 0.1 nM to 10 µM, n = 2, Negative = curve could not be fitted to a sigmoidal curve; for IC50: read-out: TR-FRET IC50
T2 construct: A pET28 plasmid containing residues 44–168 of BRD4 (BD1), a 6xHis tag, a TEV protease cleavage site; 6xHis (N, cleaved yes); made in house; host or cells: E. coli Rosetta (D3)
Experimental: To further quantitatively characterize the DSF/SPR hits compounds obtained in the single-dose screenings, we selected HTRF TR-FRET. Specifically, we employed a competitive HTRF TR-FRET experiment to measure the compound’s capacity to displace an acetylated peptide from the binding site of BRD4 (BD1). For each molecule, a 16-point concentration curve was titrated against the peptide-BRD (BD1) complex and incubated for 1.5 h. A compound was considered a positive binder if we could fit its titration curve to a sigmoidal curve to determine its IC50. […] Compound screening was carried out in 384-well, white, round-bottom, small-volume plates (CORNING) in a final volume of 20 µL of 50 mM HEPES (pH 7.4), 50 mM NaCl, 400 mM KF, 0.5 mM CHAPS, and 0.05% BSA. […] Then, the labeled anti-His6-XL665 antibody (CisBio) (10 nM) was added to the mixture and incubated for 15 min, before the Eu3+ cryptate-conjugated streptavidin (2 nM) (CisBio) was added and incubated for 15 min. All incubations were performed at room temperature. […] Titration of (+)−JQ1 was used as a positive control for each experiment.

BRD4 (BD1) [2] = biological target: T2, BRD4 (BD1); assay: Differential scanning fluorimetry (DSF) single-dose thermal shift screening; type: binding; details: DSF, compound 10 µM, BRD4 (BD1) 2 µM, n = 3, decimal comma; read-out: ΔTm ºC at [10 µM]

| Compound | RUs at [10 µM] (His6-BRD4 (BD1)) | SPR RESULT (His6-BRD4 (BD1)) | TR-FRET IC50 (nM) (BRD4 (BD1) [1]) | ΔTm at 10 µM (BRD4 (BD1) [2]) [°C] | IC50 (BRD4 (BD1) [1]) [µM] | IC50 by HTRF TR-FRET, range in words (BRD4 (BD1) [1]; potency range or dose-response behaviour) |
| --- | --- | --- | --- | --- | --- | --- |
| COc1cccc(-n2c(C)nnc2SCC(=O)N2CC(n3cc(-c4ccc(F)cn4)nn3)C2)c1 [Compound 37, COC=1C=CC=C(C1)N2C(C)=NN=C2SCC(=O)N3CC(C3)N4C=C(N=N4)C=5C=CC(F)=CN5] | 12,42 ± 11,24 RUs | Negative | Negative | 0.77 | – | – |
| Cc1nnc2sc(C(=O)N(C)C3CN(C(=O)CCC(C)N(C)C)CC34CC4)c(N)c2c1C (centres unmarked) [Compound 59, CC(CCC(=O)N1CC(N(C)C(=O)C=2SC=3N=NC(C)=C(C)C3C2N)C4(CC4)C1)N(C)C] | 13,73 ± 9,32 RUs | Negative | Negative | 4.12 | – | – |
| CC(C)=CC(=O)NCCC1CCN(C(=O)c2cn(C)c(=O)c3ccccc23)C1 (centres unmarked) [Compound 23, CC(=CC(=O)NCCC1CCN(C1)C(=O)C2=CN(C)C(=O)C=3C=CC=CC23)C] | 5,93 ± 1,05 RUs | Negative | – | 2.61 | 0.00344 | – |
| CCCc1c(C(=O)N2CCC(Cc3cn(-c4cccc(F)c4C)nn3)C2)[nH]c(C)c1C(C)=O (centres unmarked) [Compound 33, CCCC1=C(NC(C)=C1C(=O)C)C(=O)N2CCC(CC3=CN(N=N3)C=4C=CC=C(F)C4C)C2] | 8,85 ± 1,09 RUs | Negative | Negative | 0.1 | – | – |
| CNC(=O)c1ccc(-n2nc(Cn3cccn3)nc2-c2cn(C)c(=O)c3ccccc23)cc1 [Compound 50, CNC(=O)C=1C=CC(=CC1)N2N=C(CN3C=CC=N3)N=C2C4=CN(C)C(=O)C=5C=CC=CC45] | 10,43 ± 9,29 RUs | Negative | – | 2.29 | 1.13 | – |
| Cc1nnc(NC(=O)CNC(c2ccc(F)cc2)c2cnn(C)c2)s1 (centres unmarked) [Compound 88, CC1=NN=C(NC(=O)CNC(C=2C=NN(C)C2)C=3C=CC(F)=CC3)S1] | 4,11 ± 7,31 RUs | Negative | – | 0.54 | 2.26 | – |
| Cc1cn2cc(C(=O)NC(C)CC(C)NC(=O)c3ccsn3)sc2n1 (centres unmarked) [Compound 91, CC(CC(C)NC(=O)C1=CN2C=C(C)N=C2S1)NC(=O)C=3C=CSN3] | 8,08 ± 2,94 RUs | Negative | – | 0.44 | 0.579 | – |
| COc1ccc(-n2c(C)nnc2SCC(=O)NC2CCN(C(=O)c3cc(Cl)sc3Cl)CC2C)cc1 (centres unmarked) [Compound 52, COC=1C=CC(=CC1)N2C(C)=NN=C2SCC(=O)NC3CCN(CC3C)C(=O)C=4C=C(Cl)SC4Cl] | 31,14 ± 2,8 RUs | Positive | – | -0.23 | 0.266 | – |
| CN(Cc1cccc(OC(F)F)c1)C(=O)C(=O)NC1CCN(C(=O)c2ccco2)c2ccccc21 (centres unmarked) [Compound 86, CN(CC=1C=CC=C(OC(F)F)C1)C(=O)C(=O)NC2CCN(C(=O)C3=CC=CO3)C=4C=CC=CC24] | 56,94 ± 25,46 RUs | Negative | Negative | 0.94 | – | – |
| Cc1ccc(CNC(=O)c2ccc3nnc(C)c(C)c3c2)c(OC2CCOC2)c1 (centres unmarked) [Compound 20, CC=1C=CC(CNC(=O)C=2C=CC=3N=NC(C)=C(C)C3C2)=C(OC4CCOC4)C1] | 41,88 ± 12,55 RUs | Positive | Negative | 2.33 | – | – |
| CCCc1c(C(=O)N2CCOC(Cn3cc(-c4ccsc4)nn3)C2)[nH]c(C)c1C(C)=O (centres unmarked) [Compound 22, CCCC1=C(NC(C)=C1C(=O)C)C(=O)N2CCOC(CN3C=C(N=N3)C=4C=CSC4)C2] | 20,06 ± 0,43 RUs | Positive | – | 2.02 | 0.046 | – |
| CN(C)S(=O)(=O)c1ccc(-n2nc(-c3cccnc3)nc2-c2cn(C)c(=O)c3ccccc23)cc1 [Compound 51, CN(C)S(=O)(=O)C=1C=CC(=CC1)N2N=C(N=C2C3=CN(C)C(=O)C=4C=CC=CC34)C=5C=CC=NC5] | 29,75 ± 5,31 RUs | Positive | – | 3.61 | 0.0393 | – |
| COc1ccc(C=C(CC(=O)Nc2nnc(C)s2)c2nc3ccccc3s2)cc1OC [Compound 70, COC=1C=CC(C=C(CC(=O)NC2=NN=C(C)S2)C3=NC=4C=CC=CC4S3)=CC1OC] | 21,72 ± 4,06 RUs | Positive | – | 0.65 | 0.123 | – |
| Cc1cc(C)n2nc(NC(=O)N3CCc4cc(Cl)cc(Cl)c4C3)nc2n1 [Compound 77, CC=1C=C(C)N2N=C(NC(=O)N3CCC=4C=C(Cl)C=C(Cl)C4C3)N=C2N1] | 67,27 ± 12,19 RUs | Positive | – | 0.48 | 0.135 | – |
| CCn1nnc2cc(C(=O)N3CCC(c4nnc(CNC(=O)c5ccncn5)s4)CC3)ccc21 [Compound 56, CCN1N=NC=2C=C(C=CC12)C(=O)N3CCC(CC3)C4=NN=C(CNC(=O)C=5C=CN=CN5)S4] | 10,07 ± 8,75 RUs | Negative | – | 3.79 | 0.722 | – |
| Cc1nc(=O)c(CCC(=O)N2CC3(CCCC3)c3ccccc32)c[nH]1 [Compound 85, CC1=NC(=O)C(CCC(=O)N2CC3(CCCC3)C=4C=CC=CC24)=CN1] | 24,26 ± 6,71 RUs | Positive | – | 1.18 | 0.018 | – |
| Cc1ccc(-n2c(C)nnc2SCC(=O)N2CCOCCC23COC3)cc1 [Compound 94, CC1=NN=C(SCC(=O)N2CCOCCC32COC3)N1C=4C=CC(C)=CC4] | 3,87 ± 1,96 RUs | Negative | – | 1.19 | 0.0279 | low nM |
| Cn1cc(C(=O)Nc2ccc(OCc3cnccn3)cc2)c2ccccc2c1=O [Compound 42, CN1C=C(C(=O)NC=2C=CC(OCC=3C=NC=CN3)=CC2)C=4C=CC=CC4C1=O] | 34,2 ± 10,95 RUs | Positive | – | 1.04 | 0.169 | – |
| COc1cccc(-n2nc(-c3cscn3)nc2-c2cn(C)c(=O)c3ccccc23)c1 [Compound 58, COC=1C=CC=C(C1)N2N=C(N=C2C3=CN(C)C(=O)C=4C=CC=CC34)C5=CSC=N5] | 75,54 ± 39,86 RUs | Negative | – | 2.28 | 0.511 | – |
| Cc1cc(C)n2nc(CNC(=NCCCN3CCOCC3)N3CCC(NC(=O)CBr)C3)nc2n1 (centres unmarked) [Compound 93, BrCC(=O)NC1CCN(C1)C(=NCCCN2CCOCC2)NCC=3N=C4N=C(C)C=C(C)N4N3] | 20,44 ± 23,06 RUs | Negative | – | -0.58 | 0.47 | – |
| Cc1cc(C(=O)NCCc2nc3cc(Cl)ccc3[nH]2)n2ncnc2n1 [Compound 78, CC=1C=C(C(=O)NCCC2=NC=3C=C(Cl)C=CC3N2)N4N=CN=C4N1] | 9,01 ± 0,76 RUs | Positive | – | 1.53 | 0.17 | – |
| CC(=O)c1c(C)[nH]c(C(=O)N2CCCC(c3cn(CC4CC5CC5C4)nn3)C2)c1C (centres unmarked) [Compound 29, CC(=O)C1=C(C)NC(C(=O)N2CCCC(C2)C3=CN(CC4CC5CC5C4)N=N3)=C1C] | – | Negative | Negative | -1.17 | – | – |
| CCOc1ccc(-n2nc(Cc3ccncc3)nc2-c2cn(C)c(=O)c3ccccc23)cc1 [Compound 21, CCOC=1C=CC(=CC1)N2N=C(CC=3C=CN=CC3)N=C2C4=CN(C)C(=O)C=5C=CC=CC45] | 38,73 ± 19,2 RUs | Negative | – | 2.33 | 0.552 | – |
| CC(=O)c1ccc(N2CCN(C(=O)Nc3nnc(C)s3)CC2)c(F)c1 [Compound 69, CC(=O)C=1C=CC(N2CCN(CC2)C(=O)NC3=NN=C(C)S3)=C(F)C1] | 23,49 ± 1,0 RUs | Positive | Negative | 0.61 | – | – |
| Cc1cc(C)n2nc(NC(=O)N3CCC(CCC(C)(C)C)C3)nc2n1 (centres unmarked) [Compound 74, CC=1C=C(C)N2N=C(NC(=O)N3CCC(CCC(C)(C)C)C3)N=C2N1] | 52,94 ± 6,92 RUs | Positive | – | 0.4 | 1.37 | – |
| COC1(CNC(=O)C2=C(Cl)CCCC2)CCN(C(=O)c2sc3nnc(C)c(C)c3c2N)CC1 [Compound 57, COC1(CNC(=O)C2=C(Cl)CCCC2)CCN(CC1)C(=O)C=3SC=4N=NC(C)=C(C)C4C3N] | 26,22 ± 6,56 RUs | Positive | Negative | 0.48 | – | – |
| Cc1nonc1CC(=O)N1CC(CC(C)NC(=O)c2nsnc2O)C1 (centres unmarked) [Compound 90, CC(CC1CN(C1)C(=O)CC2=NON=C2C)NC(=O)C3=NSN=C3O] | 11,06 ± 3,73 RUs | Negative | – | 0.43 | 0.213 | – |
| COc1ccc(-c2cc(NC(=O)C(=O)NC(C)c3nnc4ncccn34)ccc2OC)cc1 (centres unmarked) [Compound 47, COC=1C=CC(=CC1)C=2C=C(NC(=O)C(=O)NC(C)C3=NN=C4N=CC=CN34)C=CC2OC] | 25,41 ± 18,52 RUs | Negative | – | 1.25 | 0.256 | – |
| Cc1cc(C)n2nc(CC(=O)NCC(C)(C)Cn3cc(-c4sccc4C)nn3)nc2n1 [Compound 64, CC=1C=CSC1C2=CN(CC(C)(C)CNC(=O)CC=3N=C4N=C(C)C=C(C)N4N3)N=N2] | 25,91 ± 0,65 RUs | Positive | Negative | 0.1 | – | – |
